Results reported in PubChem BioAssay AID1918993 (Molecular Pharmacology Branch, DTP, NCI, 2023).
“And” between values parts separate entries of the source, which are not always exact repeats. Equal entries are not always repeated.

System: 233499-124-R-J3-PDC complex spheroid growth
Assay: Anticancer human tumor 233499-124-R-J3-PDC patient-derived colon adenocarcinoma cell line growth inhibition [AhR]
Conditions: for viability, T/C: stronger effect = lower value; active means viability on the fitted dose curve at most 10% of control; inactive means the rest
Text: Multicellular complex tumor spheroid response to aryl hydrocarbon receptor antagonists in combination with a variety of drugs and investigational agents in selected tumor cell lines
The current study was undertaken to assess response to aryl hydrocarbon receptor antagonists in combination with standard-of-care drugs and investigational agents in solid tumor complex spheroid models. Complex spheroids include a stromal component modeled by human endothelial cells (HUVEC) and fibroblasts modeled by human mesenchymal stem cells (MSCs). The concentration ranges selected for each drug and investigational agent were based upon clinically achievable concentrations if the clinical Cmax of the agent was known.
Compounds. The drugs and investigational agents: BAY 2416964 (NSC825713), GNF351 (NSC835774), CH-223191 (NSC835775), CPI-455 (NSC825282), aza-TdCyd (NSC777586), decitabine (NSC127716), belinostat (NSC758774), entinostat (NSC756642), pevonedistat (NSC761192), tazemetostat (NSC777109), talazoparib (NSC765396), olaparib (NSC753686), selinexor (NSC780203), nedisertib (M3814, NSC802822), bortezomib (NSC756655), venetoclax (NSC766270), doxorubicin (NSC123127), elimusertib (BAY189344, NSC800525), ceralasertib (AZD6738, NSC777638), TAK-243 (NSC785004), alisertib (NSC759677), etoposide (NSC141540), topotecan (NSC609699), eribulin (NSC707389), gemcitabine (NSC613327), carboplatin (NSC241240), cisplatin (NSC119875), and SN-38 (NSC673596) were obtained from the National Cancer Institute (NCI) Developmental Therapeutics Program Chemical Repository (32). The FDA-approved anticancer drug set is available from the Developmental Therapeutics Program at https://dtp.cancer.gov/organization/dscb/obtaining/available plates.htm. […] The stock solutions were prepared in dimethyl sulfoxide (DMSO, Sigma-Aldrich, St. Louis, MO, cat. D2650), except for the platinum compounds which were prepared in saline (Quality Biological, Gaithersburg, MD, cat. 114-055-101), at 800-fold the tested concentration and stored at -70 degrees C prior to their use. All drugs and investigational agents were tested over a range starting from a high concentration at or near the clinical Cmax and decreasing in half-log increments. If the clinical Cmax for an agent had not been determined, the highest concentration tested was 10 microM (Table 1).
Cell Culture. All cells were maintained in an incubator at 37 degrees C and 5% CO2 with 95% humidity. The PDC lines were cultured according to standard operating procedures established by the NCI PDMR (https://pdmr.cancer.gov). Briefly, all PDCs were thawed and cultured in Matrigel-coated flasks prepared with a working solution of 1X Ham's F-12 nutrient mix, without supplementation (Invitrogen, Waltham, MA, cat. 11765054), 100 U/mL penicillin-streptomycin (Invitrogen, cat. 15140122), and 2.5% Matrigel (Corning Inc., Corning, NY, cat. 354248) for the first three passages. All PDCs were cultured in complete DMEM/F-12 media containing advanced DMEM/F-12 (Invitrogen, cat. 12634028), 4.9% defined fetal bovine serum, heat inactivated (HyClone Laboratories Inc., Logan, UT, cat. SH30070.03HI), 389 ng/mL hydrocortisone (Sigma-Aldrich, cat. H4001), 9.7 ng/mL human EGF recombinant protein (Invitrogen, cat. PHG0313), 23.4 microg/mL adenine (Sigma-Aldrich, cat. A2786), 97.3 U/mL penicillin-streptomycin (Invitrogen, cat. 15140122), 1.9 mM L-glutamine (Invitrogen, cat. 25030081), and 9.7 microM Y-27632 dihydrochloride (Tocris Bioscience, Bristol, United Kingdom, cat. 1254). The PDCs were cultured in complete DMEM/F12 media without 10 microM Y-27632 dihydrochloride for at least two passages prior to the screen. The established cell lines NCI-H1341 and […] were cultured in DMEM/F-12, HEPES (Invitrogen, cat. 11330032), 5% defined fetal bovine serum (HyClone Laboratories Inc., cat. SH30070.03), ITS premix universal culture supplement [insulin (5 microg/mL), transferrin (5 microg/mL), and selenious acid (5 ng/mL)] […]
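Further: spheroids exposed to agents for seven days before reading.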

CC(C)CC(NC(=O)C(Cc1ccccc1)NC(=O)c1cnccn1)B(O)O (stereo not given)
active: viability, T/C (compound 0.0949 µM) 0.13% and 0.15% and 0.11% | viability, T/C (compound 0.3 µM) 0.19% and 0.2% and 0.18%
inactive: viability, T/C (compound 0.000949 µM) 104% and 97.6% and 89.6% | viability, T/C (compound 0.003 µM) 113% and 111% and 104% | viability, T/C (compound 0.00949 µM) 87.6% and 93.6% and 59.1%
0.0158 µM and 0.0173 µM and 0.0113 µM: IC50 (curve of compound)
3.07% and 10.3% and 0.16%: viability, T/C (compound 0.03 µM)

CC(C)c1c(-c2ccccc2)nc2c(C#N)c[nH]n2c1=O
inactive: viability, T/C (compound 0.0316 µM) 101% and 108% and 114% | viability, T/C (compound 0.1 µM) 105% (2×) and 103% | viability, T/C (compound 0.316 µM) 107% and 96% and 113% | viability, T/C (compound 1 µM) 94% and 102% and 93.5% | viability, T/C (compound 3.16 µM) 98.7% and 110% and 117% | viability, T/C (compound 10 µM) 117% and 124% and 105%
> 10 µM: IC50 (curve of compound)

CC(CO)NC(=O)c1cc(-c2ccc(Cl)cc2)nn(-c2cnn(C)c2)c1=O (stereo not given)
inactive: viability, T/C (compound 0.316 µM) 94.2% [middle of 21 runs] | viability, T/C (compound 3.16 µM) 91.3% [middle of 19 runs]
> 10 µM: IC50 (compound alone, run of 07/12/2022)

CC1(C)CCC(CN2CCN(c3ccc(C(=O)NS(=O)(=O)c4ccc(NCC5CCOCC5)c([N+](=O)[O-])c4)c(Oc4cnc5[nH]ccc5c4)c3)CC2)=C(c2ccc(Cl)cc2)C1
inactive: viability, T/C (compound 0.0316 µM) 87.2% and 90.9% and 106% | viability, T/C (compound 0.1 µM) 102% and 112% and 109% | viability, T/C (compound 0.316 µM) 92.4% and 105% and 97.8% | viability, T/C (compound 1 µM) 105% and 101% and 104% | viability, T/C (compound 3.16 µM) 112% and 114% and 98.7% | viability, T/C (compound 10 µM) 109% and 42.8% and 31.2%
> 10 µM and 8.74 µM and 7.26 µM: IC50 (curve of compound)

CC1COCCN1c1cc(-c2ccnn2C)c2ccnc(-c3ccn[nH]3)c2n1 (stereo not given)
inactive: viability, T/C (compound 0.00316 µM) 94.6% and 92.4% and 98.3% | viability, T/C (compound 0.01 µM) 88.1% and 91.6% and 75% | viability, T/C (compound 0.0316 µM) 91.3% and 96.4% and 105% | viability, T/C (compound 0.1 µM) 89.3% and 82.8% and 95.2% | viability, T/C (compound 0.316 µM) 75.3% and 74.5% and 69.8% | viability, T/C (compound 1 µM) 43% and 64% and 37.5%
0.784 µM and > 1 µM and 0.642 µM: IC50 (curve of compound)

CC1COCCN1c1cc(C2(S(C)(=N)=O)CC2)nc(-c2ccnc3[nH]ccc23)n1 (stereo not given)
inactive: viability, T/C (compound 0.0316 µM) 103% and 90.3% and 112% | viability, T/C (compound 0.1 µM) 108% and 97% and 92.9% | viability, T/C (compound 0.316 µM) 92.2% and 95% and 95.2% | viability, T/C (compound 1 µM) 105% and 97.5% and 94.2% | viability, T/C (compound 3.16 µM) 89.7% and 90.8% and 96.2% | viability, T/C (compound 10 µM) 91.8% and 83.7% and 83.1%
> 10 µM: IC50 (curve of compound)

CCN(c1cc(-c2ccc(CN3CCOCC3)cc2)cc(C(=O)NCc2c(C)cc(C)[nH]c2=O)c1C)C1CCOCC1
inactive: viability, T/C (compound 0.00949 µM) 92.4% and 97.3% and 86.5% | viability, T/C (compound 0.03 µM) 107% and 97% and 98% | viability, T/C (compound 0.0949 µM) 96.5% and 90.3% and 94.9% | viability, T/C (compound 0.3 µM) 103% and 96.3% and 91.4% | viability, T/C (compound 0.949 µM) 102% and 109% and 100% | viability, T/C (compound 3 µM) 106% and 97.9% and 96.6%
> 3 µM: IC50 (curve of compound)

CC[C@@]1(O)C(=O)OCc2c1cc1n(c2=O)Cc2cc3c(CN(C)C)c(O)ccc3nc2-1
> 0.1 µM: IC50 (curve of compound)
inactive: viability, T/C (compound 0.000316 µM) 104% (2×) and 97.5% | viability, T/C (compound 0.001 µM) 107% and 86.7% and 95.5% | viability, T/C (compound 0.00316 µM) 94.7% and 92% and 87.1% | viability, T/C (compound 0.01 µM) 95% and 99.2% and 93.8% | viability, T/C (compound 0.0316 µM) 86.8% and 86.6% and 108% | viability, T/C (compound 0.1 µM) 92.3% and 83.2% and 89.9%

CCc1c2c(nc3ccc(O)cc13)-c1cc3c(c(=O)n1C2)COC(=O)[C@]3(O)CC
> 0.3 µM: IC50 (curve of compound)
inactive: viability, T/C (compound 0.000949 µM) 117% and 96.2% and 99.4% | viability, T/C (compound 0.003 µM) 93.8% and 87.6% and 85.8% | viability, T/C (compound 0.00949 µM) 89.5% and 85.3% and 77.4% | viability, T/C (compound 0.03 µM) 69.6% and 75.1% and 56.9% | viability, T/C (compound 0.0949 µM) 84.1% and 84% and 77.8% | viability, T/C (compound 0.3 µM) 98.5% and 95.3% and 73.3%

COc1cc(C2c3cc4c(cc3C(OC3OC5COC(C)OC5C(O)C3O)C3COC(=O)C23)OCO4)cc(OC)c1O (stereo not given)
> 10 µM: IC50 (curve of compound)
inactive: viability, T/C (compound 0.0316 µM) 101% and 87.7% and 99.6% | viability, T/C (compound 0.1 µM) 92.9% and 95.8% and 106% | viability, T/C (compound 0.316 µM) 98.6% and 95.4% and 95.7% | viability, T/C (compound 1 µM) 109% and 93.1% and 94.7% | viability, T/C (compound 3.16 µM) 91.3% and 92.4% and 110% | viability, T/C (compound 10 µM) 93.3% and 78.6% and 85.6%

COc1cc(Nc2ncc3c(n2)-c2ccc(Cl)cc2C(c2c(F)cccc2OC)=NC3)ccc1C(=O)O
inactive: viability, T/C (compound 0.0316 µM) 86.8% and 75.8% and 70.1% | viability, T/C (compound 0.1 µM) 82.6% and 65.5% and 75.6% | viability, T/C (compound 0.316 µM) 80.1% and 102% and 79.4% | viability, T/C (compound 1 µM) 84.1% and 87.8% and 83.3% | viability, T/C (compound 3.16 µM) 97.7% and 89.4% and 91.1% | viability, T/C (compound 10 µM) 82.9% and 90.2% and 86%
> 10 µM: IC50 (curve of compound)

COc1ccc([C@@H](O)c2cc(-c3ncnc4cc(N5CCOCC5)ccc34)c(F)cc2Cl)nn1
inactive: viability, T/C (compound 0.0316 µM) 99.4% and 94% and 95.8% | viability, T/C (compound 0.1 µM) 95.7% and 89% and 102% | viability, T/C (compound 0.316 µM) 94.3% and 102% and 98.5% | viability, T/C (compound 1 µM) 99.9% and 87% and 104% | viability, T/C (compound 3.16 µM) 92.7% and 89.7% and 82.3% | viability, T/C (compound 10 µM) 98.3% and 91% and 81.9%
> 10 µM: IC50 (curve of compound)
